Consider 2 molecules from US20110263509A1, “PREPARATION AND USE OF HIGH-PURITY HEMOPARATIDE (HPTH-1-37) FOR THE TREATMENT OF INFLAMMATORY SCALING DISEASES OF THE SKIN” (Haemopep Pharma GmbH, priority 2008, published 2011).

Series [1] is described as follows: Stability of the active ingredient in hydrophilic ointment (cream) formulation. The class given is physicochemical. The conditions noted are these: hydrophilic ointment DAB base; except for methionine-oxidized metabolites. An excerpt: In one embodiment of the invention, the hemoparatide (hPTH-1-37) or its derivatives are used for preparing a medicament in different galenic application forms, especially as a lyophilizate. In one embodiment of this medicament, a hydrophilic ointment, especially according to the German Pharmacopoeia, is used as a galenic application base. […] These oxidized metabolites also occur as natural PTH forms in the blood plasma, but can be avoided by working under a nitrogen atmosphere, and are free from side effects, being naturally occurring endogenous derivatives.
Hemoparatide was incorporated into this base in concentrations of 0.03% by weight, 0.1% by weight and 0.3% by weight.
These oxidized metabolites also occur as natural PTH forms in the blood plasma, but can be avoided by working under a nitrogen atmosphere, and are free from side effects, being naturally occurring endogenous derivatives.

Series [2] in a line: Solubility, dissolution time (specification). The class given is physicochemical.
A short description of series [3]: Storage stability of the lyophilized preparation at +4° C., HPLC comparison of fresh material and material stored nine months. The class given is physicochemical. The conditions noted are these: lyophilized form. The source says: FIGS. 4A and 4B disclose HPLC chromatograms of hPTH-1-37. […] FIG. 4B is a chromatogram of hPTH-1-37 stored for nine months. […] Further, FIG. 5 discloses a comparison between the HPLC chromatograms of freshly prepared hPTH-1-37 (A) and a commercially obtainable preparation.

Series [4] can be described thus: Phase I trial, tolerability of subcutaneous injection in aqueous solution. The class given is in vivo. The conditions noted are these: humans.

Structures are written as SMILES.

In the case of `CC[C@H](C)[C@H](NC(=O)[C@H](CCC(=O)O)NC(=O)[C@H](CO)NC(=O)[C@@H](NC(=O)[C@@H](N)CO)C(C)C)C(=O)N[C@@H](CCC(N)=O)C(=O)N[C@@H](CC(C)C)C(=O)N[C@@H](CCSC)C(=O)N[C@@H](Cc1c[nH]cn1)C(=O)N[C@@H](CC(N)=O)C(=O)N[C@@H](CC(C)C)C(=O)NCC(=O)N[C@@H](CCCCN)C(=O)N[C@@H](Cc1c[nH]cn1)C(=O)N[C@@H](CC(C)C)C(=O)N[C@@H](CC(N)=O)C(=O)N[C@@H](CO)C(=O)N[C@@H](CCSC)C(=O)N[C@@H](CCC(=O)O)C(=O)N[C@@H](CCCNC(=N)N)C(=O)N[C@H](C(=O)N[C@@H](CCC(=O)O)C(=O)N[C@@H](Cc1c[nH]c2ccccc12)C(=O)N[C@@H](CC(C)C)C(=O)N[C@@H](CCCNC(=N)N)C(=O)N[C@@H](CCCCN)C(=O)N[C@@H](CCCCN)C(=O)N[C@@H](CC(C)C)C(=O)N[C@@H](CCC(N)=O)C(=O)N[C@@H](CC(=O)O)C(=O)N[C@H](C(=O)N[C@@H](Cc1c[nH]cn1)C(=O)N[C@@H](CC(N)=O)C(=O)N[C@@H](Cc1ccccc1)C(=O)N[C@H](C(=O)N[C@@H](C)C(=O)N[C@@H](CC(C)C)C(=O)O)C(C)C)C(C)C)C(C)C` [hPTH-1-37], in series [1], the “Stability of active ingredient in formulation” value is listed as “very stable”. Moreover, the “Solubility, dissolution time” value in series [2] is “≦2 min”. Moreover, in series [3], the “Methionine-oxidized metabolites after storage (stability)” value is “Only very small amounts of methionine-oxidized metabolites can be detected”.

As for `CC[C@H](C)[C@H](NC(=O)[C@H](CCC(=O)O)NC(=O)[C@H](CO)NC(=O)[C@@H](NC(=O)[C@@H](N)CO)C(C)C)C(=O)N[C@@H](CCC(N)=O)C(=O)N[C@@H](CC(C)C)C(=O)N[C@@H](CCSC)C(=O)N[C@@H](Cc1c[nH]cn1)C(=O)N[C@@H](CC(N)=O)C(=O)N[C@@H](CC(C)C)C(=O)NCC(=O)N[C@@H](CCCCN)C(=O)N[C@@H](Cc1c[nH]cn1)C(=O)N[C@@H](CC(C)C)C(=O)N[C@@H](CC(N)=O)C(=O)N[C@@H](CO)C(=O)N[C@@H](CCSC)C(=O)N[C@@H](CCC(=O)O)C(=O)N[C@@H](CCCNC(=N)N)C(=O)N[C@H](C(=O)N[C@@H](CCC(=O)O)C(=O)N[C@@H](Cc1c[nH]c2ccccc12)C(=O)N[C@@H](CC(C)C)C(=O)N[C@@H](CCCNC(=N)N)C(=O)N[C@@H](CCCCN)C(=O)N[C@@H](CCCCN)C(=O)N[C@@H](CC(C)C)C(=O)N[C@@H](CCC(N)=O)C(=O)N[C@@H](CC(=O)O)C(=O)N[C@H](C(=O)N[C@@H](Cc1c[nH]cn1)C(=O)N[C@@H](CC(N)=O)C(=O)N[C@@H](Cc1ccccc1)C(=O)N[C@H](C(=O)N[C@@H](C)C(=O)N[C@@H](CC(C)C)C(=O)O)C(C)C)C(C)C)C(C)C` [highly pure hemoparatide], the Tolerability result in series [4] is on record as “high tolerability”. In addition, in series [2], the “Solubility, dissolution time” value is “≦2 min”. In addition, the “Methionine-oxidized metabolites after storage (stability)” value in series [3] was “only a small amount of methionine-oxidized metabolites appears”.
